# Test results published in patent US20240293405A1, “(1H-PYRROLO[2,3-B]PYRIDIN-1-YL)PYRIMIDIN-2-YL-AMINO-PHENYL-ACRYLAMIDE INHIBITORS OF EGFR FOR USE IN THE TREATMENT OF BRAIN TUMORS” (Dana-Farber Cancer Institute, Inc., priority 2021, published 2024).
# Values joined by “and” are separate entries in the source; they are usually repeats but may differ in a detail not shown here. Equal values may be shown once. “Also recorded” adds a separate entry of the source.
# What was measured:
# [1] = system: EGFRvIII, ERK1/2 and S6RP phosphorylation; experiment: Phosphorylation in CPEvIII neurosphere cultures (western blot); format: cell-based, mouse; settings: CPEvIII neurospheres, 1 day, dose-dependent
# Description: FIG. 5B is the western blot analysis of primary mouse CPEvIII cells that were treated with Compound 1 for 1 day.
# Western blot analysis was performed as described previously (Ni, J., et al. (2012). Cancer discovery 2, 425-433; Ni, J., et al. (2016). Nature medicine 22, 723-726; Ni, J., et al. (2017). Neurooncology 19, 22-30). Anti-pEGFR-1068 (#3777), anti-pEGFR-1173 (#4407), anti-EGFR (#4267), anti-pERK1/2 (#9101), anti-ERK1/2 (#9102), anti-S6RP (#2211), and anti-S6RP (#2217) antibodies were purchased from Cell Signaling Technology. Anti-a-Tubulin antibody was purchased from Sigma.
# Neural stem cells (NSCs) from E14.5 embryonic mice (Cdkn2a-null; Ptenf/f) striata were isolated and cultured as previously described (Rietze, R. L., and Reynolds, B. A. (2006). Methods in enzymology 419, 3-23). NSCs were infected twice with adenovirus expressing Cre recombinase (AdCre; MOI50) (University of Iowa) to knock out floxed Pten. Cells were then transduced with retrovirus expressing EGFRvIII (pBabe-puro-EGFRvIII) (from Dr. Charles Stiles, DFCI) and selected with 1 μg/ml puromycin. The resulting cells (Cdkn2anull; Ptennull; EGFRvIII, denominated CPEvIII) can form a glioma after grafted into the mouse brain. Tumors were then isolated and mechanically dissociated for expansion in vitro and in vivo. […]
# [2] = system: H1975 cells: EGFR L858R-T790M; experiment: H1975 SQ lung tumor xenograft in NOD.SCID mice; format: in vivo; settings: H1975 lung tumor implants, oral
# Description: (§1) Compound 1 was also evaluated in xenograft models of lung tumor cell lines harboring EGFR single and double mutations in the mouse.
# [3] = H1975 SQ lung tumor xenograft in NOD.SCID mice; format: in vivo; settings: NOD.SCID, mouse, plasma; H1975 model, 4 hours post-dose, oral; read-out: plasma concentration at which anti-tumor activity was noted
# Description: as §1
# [4] = PC-9 SQ lung tumor xenograft in NOD.SCID mice; format: in vivo; settings: mouse, plasma, PC-9 model, 4 hours post-dose, oral, read-out: plasma concentration at which anti-tumor activity was noted
# Description: as §1
# CYP3A4/3A5 = experiment: CYP phenotyping, human liver microsomes; format: in vitro ADME
# Text: Metabolism, inhibition and induction were not observed with other CYPs. Potential DDI interactions exist with drugs that are inhibitors of CYP3A4-T or those metabolized by CYP3A4/3A5; these DDI risks will be better defined once there are human pharmacokinetics (PK) data.
# human BCRP = target: T1, human BCRP (Homo sapiens, UniProt Q9UNQ0); experiment: BCRP inhibition (rosuvastatin transport, Caco-2 cells); format: in vitro ADME; settings: read-out: apparent IC50, rosuvastatin transport via human BCRP (converted)
# T1 construct: endogenous in cells; host or cells: Caco-2 cells
# Text: Further understanding of DDI risk will await definition of Phase 2 doses and exposures.
# CPEvIII GBM = experiment: Intracranial orthotopic CPEvIII allograft in mice; format: in vivo, mouse
# Description: Cells (100,000 cells resuspended in 1 μl PBS) were intracranially injected into the right striatum (0 mm anterior, 2 mm lateral, and 2.5 mm ventral to bregma) of 8-10 week-old ICR-SCID mice. Animals were monitored daily for development of neurological defects.
# Neural stem cells (NSCs) from E14.5 embryonic mice (Cdkn2a-null; Ptenf/f) striata were isolated and cultured as previously described (Rietze, R. L., and Reynolds, B. A. (2006). Methods in enzymology 419, 3-23). NSCs were infected twice with adenovirus expressing Cre recombinase (AdCre; MOI50) (University of Iowa) to knock out floxed Pten. Cells were then transduced with retrovirus expressing EGFRvIII (pBabe-puro-EGFRvIII) (from Dr. Charles Stiles, DFCI) and selected with 1 μg/ml puromycin. The resulting cells (Cdkn2anull; Ptennull; EGFRvIII, denominated CPEvIII) can form a glioma after grafted into the mouse brain. Tumors were then isolated and mechanically dissociated for expansion in vitro and in vivo.
# In GBM, EGFR mutations frequently coexist with CDKN2A deletion and PTEN deficiency (Brennan, C. W., et al. (2013). Cell 155, 462-477; Cancer Genome Atlas Research, N. (2008). Nature 455, 1061-1068). A syngeneic genetically engineered mouse (GEM) model of GBM driven by Cdkn2a and Pten double deletion concomitant with EGFRvIII expression (termed CPEvIII) has been generated. […]
# EGFR(L747-T751del,Sins) = EGFR(L747-T751del,Sins) (Homo sapiens, UniProt P00533, DELINS747-751S); experiment: Kinase binding constant (Kd)
# Text: (§2) EGFR amplifications and/or mutations are common in GBM, estimated to occur in over 50% of patients.
# [5] = target: EGFR(L747-S752del, P753S) (Homo sapiens, UniProt P00533, DEL747-752/P753S); experiment: Kinase binding constant (Kd)
# Text: as §2
# EGFR(L858R,T790M) = EGFR(L858R,T790M) (Homo sapiens, UniProt P00533, L858R/T790M); experiment: Kinase binding constant (Kd)
# Text: as §2
# EGFR(S752-I759del) = EGFR(S752-I759del) (Homo sapiens, UniProt P00533, DEL752-759); experiment: Kinase binding constant (Kd)
# Text: as §2
# ERBB2 = ERBB2 (Homo sapiens, UniProt P04626); experiment: Kinase binding constant (Kd)
# Text: as §2
# EGFR(E746-A750del) = EGFR(E746-A750del) (Homo sapiens, UniProt P00533, DEL746-750); experiment: Kinase binding constant (Kd)
# Text: as §2
# EGFR(L861Q) = EGFR(L861Q) (Homo sapiens, UniProt P00533, L861Q); experiment: Kinase binding constant (Kd)
# Text: as §2
# EGFR(G719C) = EGFR(G719C) (Homo sapiens, UniProt P00533, G719C); experiment: Kinase binding constant (Kd)
# Text: as §2
# ERBB4 = ERBB4 (Homo sapiens, UniProt Q15303); experiment: Kinase binding constant (Kd)
# Text: as §2
# EGFR(T790M) = EGFR(T790M) (Homo sapiens, UniProt P00533, T790M); experiment: Kinase binding constant (Kd)
# Text: as §2
# EGFR(G719S) = EGFR(G719S) (Homo sapiens, UniProt P00533, G719S); experiment: Kinase binding constant (Kd)
# Text: as §2
# EGFR(L858R) = EGFR(L858R) (Homo sapiens, UniProt P00533, L858R); experiment: Kinase binding constant (Kd)
# Text: as §2
# [6] = target: EGFR(L747-E749del, A750P) (Homo sapiens, UniProt P00533, A750P/DEL747-749); experiment: Kinase binding constant (Kd)
# Text: as §2
# EGFR = EGFR (Homo sapiens, UniProt P00533); experiment: Kinase binding constant (Kd)
# Text: as §2
# Sequence of EGFR (P00533 25-1210): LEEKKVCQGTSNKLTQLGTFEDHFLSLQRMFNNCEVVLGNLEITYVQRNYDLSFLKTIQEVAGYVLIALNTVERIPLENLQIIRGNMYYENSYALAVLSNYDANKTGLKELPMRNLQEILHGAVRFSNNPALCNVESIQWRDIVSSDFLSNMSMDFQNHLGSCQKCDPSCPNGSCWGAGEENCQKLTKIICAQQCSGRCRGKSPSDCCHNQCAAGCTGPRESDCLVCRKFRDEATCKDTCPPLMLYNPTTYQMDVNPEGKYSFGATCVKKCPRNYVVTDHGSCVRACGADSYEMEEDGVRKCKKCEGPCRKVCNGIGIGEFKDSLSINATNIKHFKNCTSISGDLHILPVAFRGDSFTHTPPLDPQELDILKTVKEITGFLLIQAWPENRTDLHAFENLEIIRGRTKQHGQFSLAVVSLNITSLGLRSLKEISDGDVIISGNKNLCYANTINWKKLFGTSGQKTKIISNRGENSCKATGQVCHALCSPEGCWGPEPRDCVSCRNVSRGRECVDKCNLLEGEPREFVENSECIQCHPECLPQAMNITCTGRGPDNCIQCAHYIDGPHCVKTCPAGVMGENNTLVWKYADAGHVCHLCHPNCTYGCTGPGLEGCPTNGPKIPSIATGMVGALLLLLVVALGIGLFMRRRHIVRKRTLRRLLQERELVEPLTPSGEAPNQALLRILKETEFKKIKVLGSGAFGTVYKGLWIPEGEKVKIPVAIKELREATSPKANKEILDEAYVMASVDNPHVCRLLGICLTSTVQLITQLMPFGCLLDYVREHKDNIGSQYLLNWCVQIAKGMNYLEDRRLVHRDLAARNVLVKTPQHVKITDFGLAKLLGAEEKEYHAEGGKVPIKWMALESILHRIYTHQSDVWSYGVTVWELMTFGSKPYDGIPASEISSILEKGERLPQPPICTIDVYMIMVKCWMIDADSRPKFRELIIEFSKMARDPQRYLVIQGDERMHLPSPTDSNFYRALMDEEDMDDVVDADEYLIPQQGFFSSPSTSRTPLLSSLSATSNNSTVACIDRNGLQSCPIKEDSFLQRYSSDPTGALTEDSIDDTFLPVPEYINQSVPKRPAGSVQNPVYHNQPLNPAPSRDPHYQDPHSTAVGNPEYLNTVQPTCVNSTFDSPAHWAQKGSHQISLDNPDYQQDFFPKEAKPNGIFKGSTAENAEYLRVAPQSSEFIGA
# T1 sequence (Q9UNQ0 whole entry): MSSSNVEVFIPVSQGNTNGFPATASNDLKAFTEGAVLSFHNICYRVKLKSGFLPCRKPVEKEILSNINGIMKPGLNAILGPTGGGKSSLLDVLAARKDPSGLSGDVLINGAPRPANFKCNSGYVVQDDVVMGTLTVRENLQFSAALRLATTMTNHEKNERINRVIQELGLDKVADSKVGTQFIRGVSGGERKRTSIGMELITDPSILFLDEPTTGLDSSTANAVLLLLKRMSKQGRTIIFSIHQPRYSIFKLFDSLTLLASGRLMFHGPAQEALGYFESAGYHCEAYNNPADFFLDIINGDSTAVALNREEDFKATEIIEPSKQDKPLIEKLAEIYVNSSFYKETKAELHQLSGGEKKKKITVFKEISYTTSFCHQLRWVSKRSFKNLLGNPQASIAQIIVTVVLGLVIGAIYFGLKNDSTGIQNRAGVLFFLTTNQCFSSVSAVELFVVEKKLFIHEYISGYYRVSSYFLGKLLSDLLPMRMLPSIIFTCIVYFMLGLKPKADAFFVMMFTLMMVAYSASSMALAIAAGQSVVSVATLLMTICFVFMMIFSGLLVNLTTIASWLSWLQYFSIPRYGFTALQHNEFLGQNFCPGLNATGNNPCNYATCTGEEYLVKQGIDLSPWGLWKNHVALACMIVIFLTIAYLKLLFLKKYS
# Sequence of EGFR(G719C) (P00533 25-1210 G719C): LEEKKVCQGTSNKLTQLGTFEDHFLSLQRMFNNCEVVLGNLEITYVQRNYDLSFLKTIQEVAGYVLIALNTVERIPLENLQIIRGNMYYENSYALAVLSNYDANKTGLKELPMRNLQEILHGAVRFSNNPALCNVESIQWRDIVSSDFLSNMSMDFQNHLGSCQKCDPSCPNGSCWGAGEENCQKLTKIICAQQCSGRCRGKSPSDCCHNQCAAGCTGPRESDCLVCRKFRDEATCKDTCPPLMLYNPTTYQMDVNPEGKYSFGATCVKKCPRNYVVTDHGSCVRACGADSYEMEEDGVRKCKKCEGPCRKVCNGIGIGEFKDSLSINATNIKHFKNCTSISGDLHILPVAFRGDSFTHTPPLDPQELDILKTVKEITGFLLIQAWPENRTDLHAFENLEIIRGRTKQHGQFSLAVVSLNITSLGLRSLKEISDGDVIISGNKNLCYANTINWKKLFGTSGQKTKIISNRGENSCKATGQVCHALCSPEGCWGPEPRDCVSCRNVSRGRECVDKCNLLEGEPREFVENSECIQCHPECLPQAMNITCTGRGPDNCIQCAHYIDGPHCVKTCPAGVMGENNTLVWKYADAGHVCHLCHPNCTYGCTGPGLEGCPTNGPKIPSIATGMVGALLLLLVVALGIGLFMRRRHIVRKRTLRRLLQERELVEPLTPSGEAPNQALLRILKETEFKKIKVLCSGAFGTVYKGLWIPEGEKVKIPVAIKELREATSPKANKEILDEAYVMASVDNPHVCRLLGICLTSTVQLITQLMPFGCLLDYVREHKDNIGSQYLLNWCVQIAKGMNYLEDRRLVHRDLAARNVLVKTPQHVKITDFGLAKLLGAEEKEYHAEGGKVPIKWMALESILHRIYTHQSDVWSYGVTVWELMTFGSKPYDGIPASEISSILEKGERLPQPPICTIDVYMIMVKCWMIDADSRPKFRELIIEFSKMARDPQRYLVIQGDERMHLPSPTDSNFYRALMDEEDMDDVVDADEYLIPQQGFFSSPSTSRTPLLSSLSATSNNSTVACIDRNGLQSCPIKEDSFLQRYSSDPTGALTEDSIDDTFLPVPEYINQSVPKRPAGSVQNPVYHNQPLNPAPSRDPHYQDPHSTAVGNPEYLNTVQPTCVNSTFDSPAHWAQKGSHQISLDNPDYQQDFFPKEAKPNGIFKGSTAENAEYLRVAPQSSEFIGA
# Sequence of EGFR(S752-I759del) (P00533 with tags, fused parts or gaps DEL752-759): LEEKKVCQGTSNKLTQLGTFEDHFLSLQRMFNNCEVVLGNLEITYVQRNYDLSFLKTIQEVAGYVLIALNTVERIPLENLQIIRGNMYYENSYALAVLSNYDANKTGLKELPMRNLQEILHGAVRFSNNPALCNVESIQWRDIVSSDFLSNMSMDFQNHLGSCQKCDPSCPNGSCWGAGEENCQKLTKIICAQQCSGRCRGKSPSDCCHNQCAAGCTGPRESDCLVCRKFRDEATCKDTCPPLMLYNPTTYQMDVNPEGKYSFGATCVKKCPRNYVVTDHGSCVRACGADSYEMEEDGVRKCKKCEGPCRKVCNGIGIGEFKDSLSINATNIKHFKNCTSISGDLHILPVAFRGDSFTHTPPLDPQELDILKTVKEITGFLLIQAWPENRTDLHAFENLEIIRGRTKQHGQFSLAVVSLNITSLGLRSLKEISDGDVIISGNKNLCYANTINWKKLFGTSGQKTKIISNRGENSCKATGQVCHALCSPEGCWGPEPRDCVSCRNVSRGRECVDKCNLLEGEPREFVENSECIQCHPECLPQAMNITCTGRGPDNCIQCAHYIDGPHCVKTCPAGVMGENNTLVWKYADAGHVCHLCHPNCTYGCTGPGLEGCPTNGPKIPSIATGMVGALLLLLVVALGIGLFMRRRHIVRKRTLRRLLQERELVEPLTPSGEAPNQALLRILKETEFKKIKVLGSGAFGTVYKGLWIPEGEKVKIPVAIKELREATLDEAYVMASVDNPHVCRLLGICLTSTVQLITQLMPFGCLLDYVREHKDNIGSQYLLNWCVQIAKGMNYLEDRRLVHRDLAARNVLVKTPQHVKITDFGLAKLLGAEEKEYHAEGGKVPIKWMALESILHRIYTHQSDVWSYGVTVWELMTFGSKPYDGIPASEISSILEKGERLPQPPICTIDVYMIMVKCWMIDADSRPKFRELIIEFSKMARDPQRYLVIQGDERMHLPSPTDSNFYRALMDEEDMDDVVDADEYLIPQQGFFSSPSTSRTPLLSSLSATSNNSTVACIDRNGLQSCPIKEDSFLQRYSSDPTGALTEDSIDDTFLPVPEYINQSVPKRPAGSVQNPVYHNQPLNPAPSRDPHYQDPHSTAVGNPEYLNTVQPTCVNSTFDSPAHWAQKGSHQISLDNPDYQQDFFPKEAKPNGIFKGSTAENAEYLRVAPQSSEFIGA
smiles,measurement,setting,value
"C=CC(=O)Nc1cc(Nc2nccc(-n3ccc4cccnc43)n2)c(OC)cc1N(C)CCN(C)C [Compound 1, N-(5-((4-(1H-pyrrolo[2,3-b]pyridin-1-yl)pyrimidin-2-yl)amino)-2-((2-(dimethylamino)ethyl)(methyl)amino)-4-methoxyphenyl)acrylamide]","phosphorylation of EGFRvIII, ERK1/2 and S6RP",[1],markedly reduced phosphorylation; also recorded: Marked
same,tumor response,[2],substantial tumor regression
same,concentration at 4 h,[3],800 ng/mL and 1.6 µM
same,concentration at 4 h,[4],1500 ng/mL and 3.1 µM
same,primarily metabolizing CYP,CYP3A4/3A5,CYP3A4/3A5
same,IC50,human BCRP,3020 nM
same,body weight during treatment,CPEvIII GBM; 75 mg/kg QD,no significant loss of body weight
same,phosphorylation levels of EGFRvIII in tumors (IHC),"CPEvIII GBM; tumors at end point, 75 mg/kg",reduced
same,Kd,"EGFR(L747-T751del,Sins)",2 nM
same,Kd,[5],3.1 nM
same,Kd,"EGFR(L858R,T790M)",0.11 nM
same,Kd,EGFR(S752-I759del),2.9 nM
same,Kd,ERBB2,11 nM
same,Kd,EGFR(E746-A750del),0.7 nM
same,Kd,EGFR(L861Q),3.9 nM
same,Kd,EGFR(G719C),2.2 nM
same,Kd,ERBB4,11 nM
same,Kd,EGFR(T790M),0.15 nM
same,Kd,EGFR(G719S),1.7 nM
same,Kd,EGFR(L858R),4.6 nM
same,Kd,[6],0.97 nM
same,activity against wild-type EGFR,EGFR,little activity
same,Kd,EGFR; EGFR wild type,4.9 nM
